From ChEMBL document CHEMBL4480432, “Expansion of a novel lead targeting M. tuberculosis DHFR as antitubercular agents” (Bioorg Med Chem, 2019) come the findings set out here.

Data set [1] is described as follows: Sub-acute toxicity in albino Wistar rat assessed as change in MDA level per mg protein at 10 mg/kg, po administered for 28 days measured post last dose (reference value: 0.91 +/- 0.1 nmol). The class given is organism-based. Conditions: in vivo, 672 h.
A short description of data set [2]: Sub-acute toxicity in albino Wistar rat assessed as change in Urea level at 5 mg/kg, po administered for 28 days measured post last dose (reference value: 24.54 +/- 2.12 mg/dl). It counts as organism-based. Particulars: in vivo, 672 h.
Data set [3] can be described thus: Sub-acute toxicity in albino Wistar rat assessed as change in CAT level per mg protein at 1.25 mg/kg, po administered for 28 days measured post last dose (reference value: 28.45 +/- 2.1 U). The class given is organism-based. Particulars: in vivo, 672 h.
Data set [4] in a line: Sub-acute toxicity in albino Wistar rat assessed as mortality at 1.25 to 10 mg/kg, po administered for 28 days. Conditions: in vivo, 672 h. It counts as organism-based.
A short description of data set [5]: Sub-acute toxicity in albino Wistar rat assessed as effect on eyes at 1.25 to 10 mg/kg, po administered for 28 days. It counts as organism-based. Conditions: in vivo, 672 h.
Data set [6] in a line: Sub-acute toxicity in albino Wistar rat assessed as change in AST level at 2.5 mg/kg, po administered for 28 days measured post last dose (reference value: 22.5 +/- 1.76 U/L). Particulars: in vivo, 672 h. The class given is organism-based.
A short description of data set [7]: Sub-acute toxicity in albino Wistar rat assessed as change in ALT level at 2.5 mg/kg, po administered for 28 days measured post last dose (reference value: 12.19 +/- 1.78 U/L). Conditions: in vivo, 672 h. The class given is organism-based.
Data set [8] can be described thus: Sub-acute toxicity in albino Wistar rat assessed as change in ALT level at 1.25 mg/kg, po administered for 28 days measured post last dose (reference value: 12.19 +/- 1.78 U/L). It counts as organism-based. Conditions: in vivo, 672 h.
Data set [9] can be described thus: Sub-acute toxicity in albino Wistar rat assessed as coma at 1.25 to 10 mg/kg, po administered for 28 days. The class given is organism-based. Conditions: in vivo, 672 h.
The nature of data set [10]: Sub-acute toxicity in albino Wistar rat assessed as change in serum protein level at 1.25 mg/kg, po administered for 28 days measured post last dose (reference value: […]). The class given is organism-based. Particulars: in vivo, 672 h.
Data set [11] in a line: Sub-acute toxicity in albino Wistar rat assessed as change in MDA level per mg protein at 2.5 mg/kg, po administered for 28 days measured post last dose (reference value: 0.91 +/- 0.1 nmol). The class given is organism-based. Particulars: in vivo, 672 h.
For a further data set, the target named is T1, Dihydrofolate reductase (Mycobacterium tuberculosis, UniProt P9WNX1).
T1 sequence (P9WNX1 whole entry): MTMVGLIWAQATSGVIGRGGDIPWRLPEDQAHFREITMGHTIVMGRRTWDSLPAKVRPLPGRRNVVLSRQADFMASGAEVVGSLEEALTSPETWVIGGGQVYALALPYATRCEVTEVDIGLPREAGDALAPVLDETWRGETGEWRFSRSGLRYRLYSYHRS
In words: Inhibition of Mycobacterium tuberculosis H37Rv DHFR expressed in Escherichia coli BL21(DE3) assessed as reduction in consumption of NADPH using DHF as substrate preincubated for 1 min followed by DHF addition and measured for 2 mins by spectrophotometric method.

Data set [12] is described as follows: Sub-acute toxicity in albino Wistar rat assessed as change in SOD level per mg protein at 1.25 mg/kg, po administered for 28 days measured post last dose (reference value: 4.85 +/- 0.34 U). It counts as organism-based. Conditions: in vivo, 672 h.
Data set [13] in a line: Sub-acute toxicity in albino Wistar rat assessed as effect on food intake at 1.25 to 10 mg/kg, po administered for 28 days measured post last dose. Conditions: in vivo, 672 h. The class given is organism-based.
Data set [14] in a line: Sub-acute toxicity in albino Wistar rat assessed as change in SOD level per mg protein at 5 mg/kg, po administered for 28 days measured post last dose (reference value: 4.85 +/- 0.34 U). The class given is organism-based. Particulars: in vivo, 672 h.
Data set [15] can be described thus: Sub-acute toxicity in albino Wistar rat assessed as change in hemoglobin level at 10 mg/kg, po administered for 28 days measured post last dose (reference value: 12.14 +/- 1.45 g%). The class given is organism-based. Particulars: in vivo, 672 h.
Data set [16] is described as follows: Sub-acute toxicity in albino Wistar rat assessed as change in ALT level at 5 mg/kg, po administered for 28 days measured post last dose (reference value: 12.19 +/- 1.78 U/L). The class given is organism-based. Conditions: in vivo, 672 h.
A short description of data set [17]: Sub-acute toxicity in albino Wistar rat assessed as change in hemoglobin level at 5 mg/kg, po administered for 28 days measured post last dose (reference value: 12.14 +/- 1.45 g%). It counts as organism-based. Conditions: in vivo, 672 h.
The nature of data set [18]: Sub-acute toxicity in albino Wistar rat assessed as diarrhea at 1.25 to 10 mg/kg, po administered for 28 days. It counts as organism-based. Particulars: in vivo, 672 h.
Data set [19] is described as follows: Sub-acute toxicity in albino Wistar rat assessed as change in hemoglobin level at 1.25 mg/kg, po administered for 28 days measured post last dose (reference value: 12.14 +/- 1.45 g%). It counts as organism-based. Conditions: in vivo, 672 h.
Data set [20] is described as follows: Sub-acute toxicity in albino Wistar rat assessed as change in Urea level at 1.25 mg/kg, po administered for 28 days measured post last dose (reference value: 24.54 +/- 2.12 mg/dl). Particulars: in vivo, 672 h. It counts as organism-based.
Data set [21] in a line: Sub-acute toxicity in albino Wistar rat assessed as tremors at 1.25 to 10 mg/kg, po administered for 28 days. The class given is organism-based. Particulars: in vivo, 672 h.
A short description of data set [22]: Sub-acute toxicity in albino Wistar rat assessed as change in CAT level per mg protein at 5 mg/kg, po administered for 28 days measured post last dose (reference value: 28.45 +/- 2.1 U). Particulars: in vivo, 672 h. The class given is organism-based.
A short description of data set [23]: Sub-acute toxicity in albino Wistar rat assessed as change in respiration at 1.25 to 10 mg/kg, po administered for 28 days. The class given is organism-based. Particulars: in vivo, 672 h.

Molecules are shown by their SMILES.

A word on the IC50: it is the midpoint of a concentration-inhibition curve. For `CC(=O)c1c(C)n(Cc2ccccc2)c2ccc(OCc3cn(-c4ccc(Br)cc4)nn3)cc12`, the Activity is 1.23 nmol in [1]; 26.43 mg/dL in data set [2]; 29.34 U in data set [3]; “Non-Toxic” in data set [4]; “Non-Toxic” in data set [5]; 24 U/L in [6]. For the same molecule, the Activity in [7] is 12.68 U/L; in [8] it was 13.09 U/L; in [9], “Non-Toxic”; in data set [10] it was 6.65 mg/dL; in [11], 1.05 nmol; in data set [12], 4.95 U. In addition, the Activity entry is “Non-Toxic” in data set [13]; 5.21 U in [14]; 13.98 g% in data set [15]; 14.32 U/L in data set [16]; 13.45 g% in data set [17]; “Non-Toxic” in data set [18]. Further, the Activity in data set [19] was 12.12 g%; in data set [20], 25.12 mg/dL; in data set [21] it was “Non-Toxic”; in data set [22], 31.34 U; in data set [23] it was “Non-Toxic”. The IC50 at Dihydrofolate reductase turned out to be 6.79 µM.
